# According to US6399654B1, “Biflavanoids and derivatives thereof as antiviral agents” (priority 1995, dated 2002):
# Where “and” joins values, the source holds several entries; their conditions need not be identical. Equal entries are not always repeated. Where two headings read alike, the source gives them in different places.
# Legend:
# [1] = tested on: Influenza A (H1N1) Texas/36/91; experiment: microbe, parasite or virus in culture; format: cell-based, influenza A virus; conditions: Influenza A virus, MDCK; Influenza A (H1N1) Texas/36/91; read-out: CPE Inhibition EC50
# [2] = tested on: Influenza A (H1N1) Texas/36/91; experiment: microbe, parasite or virus in culture; format: cell-based, influenza A virus; conditions: Influenza A virus, MDCK; Influenza A (H1N1) Texas/36/91; read-out: Neutral Red EC50
# [3] = tested on: Influenza A (H3N2) Beijing/32/92; experiment: microbe, parasite or virus in culture; format: cell-based, influenza A virus; conditions: Influenza A virus, MDCK; Influenza A (H3N2) Beijing/32/92; read-out: CPE Inhibition EC50
# [4] = tested on: Influenza A (H3N2) Beijing/32/92; experiment: microbe, parasite or virus in culture; format: cell-based, influenza A virus; conditions: Influenza A virus, MDCK; Influenza A (H3N2) Beijing/32/92; read-out: Neutral Red EC50
# [5] = tested on: Influenza B Panama/45/90; experiment: microbe, parasite or virus in culture; format: cell-based; conditions: Influenza B virus, MDCK, read-out: CPE Inhibition EC50
# [6] = tested on: Influenza B Panama/45/90; experiment: microbe, parasite or virus in culture; format: cell-based; conditions: Influenza B virus, MDCK, read-out: Neutral Red EC50
# [7] = tested on: Measles Virus; experiment: microbe, parasite or virus in culture; format: cell-based; conditions: Measles morbillivirus, BSC-1; Measles Virus; read-out: CPI Inhibition EC50
# [8] = tested on: Measles Virus; experiment: Measles virus neutral red dye uptake in BSC-1 cells; format: cell-based; conditions: Measles morbillivirus, BSC-1
# [9] = tested on: Adenovirus Type 5; experiment: microbe, parasite or virus in culture; format: cell-based; conditions: Human mastadenovirus C, A549, read-out: CPE Inhibition EC50
# [10] = tested on: Adenovirus Type 5; experiment: Adenovirus type 5 neutral red dye uptake in A549 cells; format: cell-based; conditions: Human mastadenovirus C, A549, read-out: Neutral Red EC50
# [11] = tested on: Parainfluenza Type 3 Virus; experiment: organism not typed; format: cell-based; conditions: MA104; Parainfluenza Type 3 Virus; read-out: CPI Inhibition EC50
# [12] = tested on: Parainfluenza Type 3 Virus; experiment: organism not typed; format: cell-based; conditions: MA104, read-out: Neutral Red EC50
# [13] = tested on: Respiratory Syncytial Virus; experiment: microbe, parasite or virus in culture; format: cell-based; conditions: human respiratory syncytial virus, MA104; read-out: Neutral Red EC50
# [14] = target: T1, HIV-1 RT (Human immunodeficiency virus type 1 group M subtype B, UniProt P03366); experiment: Anti-HIV-1 RT assay (recombinant enzyme); format: biochemical
# T1 construct: made in house; host or cells: Escherichia coli
# [15] = tested on: HIV-1 (strain LAV-1); experiment: microbe, parasite or virus in culture; format: cell-based
# [16] = tested on: African green monkey kidney (MA-104) cells
# [17] = tested on: human PBM cells
# [18] = in vitro; conditions: dog
# [19] = in vitro; conditions: dog, Neutral Red IC50 (cytotoxic)
# [20] = in vitro; conditions: African green monkey
# [21] = in vitro; conditions: African green monkey, Neutral Red IC50 (cytotoxic)
# [22] = in vitro; conditions: human
# [23] = in vitro; conditions: human; remark: listed apart in the source
# [24] = tested on: HCMV; experiment: HCMV CPE inhibition in HFF cells
# [25] = tested on: HSV-1; experiment: HSV-1 CPE inhibition in HFF cells
# [26] = tested on: HSV-2; experiment: HSV-2 CPE inhibition in HFF cells
# [27] = tested on: VZV; experiment: VZV plaque reduction assay in HFF cells
# [28] = tested on: Hepatitis B Virus (HBV); experiment: Inhibition of HBV replication in 2.2.15 cells, extracellular (virion) HBV DNA; conditions: Hepatitis B virus, 216 h;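 further: extracellular virion HBV DNA in culture medium measured by slot blot hybridization with a 32P-labeled HBV probe, quantified against HBV DNA standards, after 9 days of daily dosing, compared with day 0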
smiles,measurement,setting,value
"O=c1cc(-c2ccc(Oc3c(O)cc4oc(-c5ccc(O)cc5)cc(=O)c4c3O)cc2)oc2cc(O)cc(O)c12 [Hinokiflavone (4), hinokiflavone]",EC50,[1],> 1 µg/mL
same,EC50,[2],1.8 µg/mL
same,EC50,[3],> 3.2 µg/mL
same,EC50,[4],1.9 µg/mL
same,EC50,[5],> 1 µg/mL
same,EC50,[6],1.9 µg/mL
same,EC50,[7],< 3 µg/mL
same,EC50,[8],< 5 µg/mL
same,EC50,[9],> 10 µg/mL
same,EC50,[10],19 µg/mL
same,EC50,[11],> 1 µg/mL
same,EC50,[12],5 µg/mL
same,EC50,[13],> 3.2 µg/mL
same,IC50,"[14]; Anti-HIV-1 RT IC50, values in parentheses or in words",62 µM
same,IC50,[14]; HIV-1 RT IC50 (50% inhibition dose),65.4 µM and 62.6 µM
same,inhibition at 200 µg/mL,[14]; read-out: Anti-HIV-1 RT % Inhibition at 200 μg/ml,89%
same,EC50,"[15]; Human immunodeficiency virus 1, PBMC, human PBM cells infected with HIV-1 (strain LAV), read-out: Ant-HIV-1 in PBM cells EC50",4.1 µM
same,Selective Index (SI),[15]; PBM cells,<1
same,Neutral Red IC50 (cytotoxic),[16],7 µg/mL
same,toxicity against uninfected PHA-stimulated human PBM cells (in words),[17],high toxicity
same,IC50,"[18]; CPE Inhibition IC50 (50% cell inhibitory (cytotoxic) concentration), Influenza A (H1N1) test",1.4 µg/mL
same,IC50,"[18]; CPE Inhibition IC50 (cytotoxic), Influenza A (H3N2) test",1.3 µg/mL
same,IC50,"[18]; CPE Inhibition IC50 (cytotoxic), Influenza B test",1.2 µg/mL
same,IC50,[19]; Influenza A (H1N1) test,2 µg/mL
same,IC50,[19]; Influenza A (H3N2) test,2.2 µg/mL
same,IC50,[19]; Influenza B test,2 µg/mL
same,IC50,"[20]; CPE Inhibition IC50 (cytotoxic), Respiratory Syncytial Virus test",2.5 µg/mL
same,IC50,"[20]; CPI Inhibition IC50 (cytotoxic), Parainfluenza Type 3 Virus test",1 µg/mL
same,IC50,[21],6 µg/mL
same,IC50,[22],9.1 µM
same,CC50 at 14 days,[23]; HCMV CPE Inhibition CC50,2.6 µg/mL
same,CC50 at 3 days,[23]; HSV-1 CPE Inhibition CC50,77.7 µg/mL
same,CC50 at 3 days,[23]; HSV-2 CPE Inhibition CC50,77.5 µg/mL
same,CC50 at 10 days,[23]; VZV Plaque Reduction CC50,16.8 µg/mL
same,HCMV SI (CC50/EC50),[24]; HFF Cells,<3.2
same,EC50,"[24]; Human betaherpesvirus 5, HFF, read-out: HCMV CPE Inhibition EC50",> 0.8 µg/mL
same,HSV-1 SI (CC50/EC50),[25]; HFF Cells,<3.9
same,EC50,"[25]; Human alphaherpesvirus 1, HFF, read-out: HSV-1 CPE Inhibition EC50",> 20 µg/mL
same,HSV-2 SI (CC50/EC50),[26]; HFF Cells,<319
same,EC50,"[26]; Human alphaherpesvirus 2, HFF, read-out: HSV-2 CPE Inhibition EC50",> 20 µg/mL
same,VZV SI (CC50/EC50),[27]; HFF Cells,<4.2
same,EC50,"[27]; Human alphaherpesvirus 3, HFF, read-out: VZV Plaque Reduction EC50",> 4 µg/mL
same,EC50,"[28]; read-out: EC50 (50% effective dose), HBV Virion, 2.2.15 cells, extracellular (virion) HBV DNA, 9 days treatment",> 100 µM
same,EC90,"[28]; read-out: EC90 (90% effective dose), HBV Virion, 2.2.15 cells, extracellular (virion) HBV DNA, 9 days treatment",> 100 µM
